# Measured values taken from ChEMBL document CHEMBL1268960, “Discovery of cell-active phenyl-imidazole Pin1 inhibitors by structure-guided fragment evolution” (Bioorg Med Chem Lett, 2010).
# The source made the active and inactive calls. The calls are words filed in the database; no cut-off is given here.
# What was measured:
# [1] = target: T1, Peptidyl-prolyl cis-trans isomerase NIMA-interacting 1 (Homo sapiens, UniProt Q13526); assay: Inhibition of Pin1 by PIn1 PPIase assay
# PC-3 [2] = assay: Growth inhibition of serum starved human PC3 cells; format: functional
# [3] = target: T1, Peptidyl-prolyl cis-trans isomerase NIMA-interacting 1; assay: Binding affinity to Pin1 by isothermal calorimetry
# [4] = target: Peptidyl-prolyl cis-trans isomerase FKBP1A (Homo sapiens) (UniProt P62942); assay: Inhibition of FKBP12
# [5] = target: Peptidyl-prolyl cis-trans isomerase A (Homo sapiens) (UniProt P62937); assay: Inhibition of cyclophilin A
# [6] = target: T1, Peptidyl-prolyl cis-trans isomerase NIMA-interacting 1; assay: Inhibition of Pin1-mediated cyclin D1 expression in serum starved human PC3 cells; format: cell-based, PC-3
# PC-3 [7] = assay: Inhibition of cyclin E1 expression in serum starved human PC3 cells; format: functional, cell-based
# [8] = target: T1, Peptidyl-prolyl cis-trans isomerase NIMA-interacting 1; assay: Inhibition of Pin1 in serum starved human PC3 cells assessed as reduction in insulin-induced p7)S6 kinase phosphorylation; format: cell-based, PC-3
# T1 sequence (Q13526 whole entry): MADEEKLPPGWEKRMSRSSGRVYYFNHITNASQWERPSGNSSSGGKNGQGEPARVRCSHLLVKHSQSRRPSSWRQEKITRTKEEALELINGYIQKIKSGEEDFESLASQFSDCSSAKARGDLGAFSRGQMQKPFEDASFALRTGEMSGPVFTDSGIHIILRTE
# Sequence of Peptidyl-prolyl cis-trans isomerase FKBP1A (Homo sapiens) (P62942 whole entry): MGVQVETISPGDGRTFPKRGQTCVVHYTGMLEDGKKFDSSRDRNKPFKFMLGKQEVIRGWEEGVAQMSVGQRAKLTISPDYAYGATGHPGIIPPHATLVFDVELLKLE
# Sequence of Peptidyl-prolyl cis-trans isomerase A (Homo sapiens) (P62937 whole entry, looked up): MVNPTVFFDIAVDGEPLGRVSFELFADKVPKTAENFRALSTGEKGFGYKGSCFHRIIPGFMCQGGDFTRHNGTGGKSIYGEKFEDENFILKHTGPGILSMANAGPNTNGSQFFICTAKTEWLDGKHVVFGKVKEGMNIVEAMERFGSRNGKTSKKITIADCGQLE
Structure (SMILES),IC50 [1] [µM],GI50 (PC-3 [2]) [µM],other results
O=C(O)c1[nH]c(-c2ccccc2)nc1C(=O)N1CCOCC1,–,> 200,–
O=C(O)c1[nH]c(-c2cccc(Cl)c2)nc1C(=O)N(Cc1ccccc1)Cc1ccccc1,1.4,18,Kd [3]: 1.4 µM
O=C(O)c1nc(-c2ccccc2)[nH]c1C(=O)NCc1ccccc1,220,–,–
O=C(O)c1nc(-c2ccccc2)[nH]c1C(=O)N(Cc1ccccc1)Cc1ccccc1,4,21,–
NC(=O)CN(Cc1nc2ccccc2s1)C(=O)c1nc(-c2ccccc2)[nH]c1C(=O)O,0.52,> 80,–
O=C(O)c1[nH]c(-c2cccc(Cl)c2)nc1C(=O)N1CCOCC1,21,> 200,–
Cc1nc(-c2cccc(C#N)c2)[nH]c1C(=O)O,19,–,–
CCNC(=O)c1nc(-c2ccccc2)[nH]c1C(=O)O,140,–,–
O=C(O)c1nc(-c2cccc(F)c2)[nH]c1C(=O)O,0.32,–,Kd [3]: 0.52 µM

# Continued, in another order:
IC50 [1] [µM],GI50 (PC-3 [2]) [µM],Structure (SMILES),other results
23,–,Cc1nc(-c2cccc(C(F)(F)F)c2)[nH]c1C(=O)O,–
270,–,COc1cccc(-c2nc(C)c(C(=O)O)[nH]2)c1,–
–,56,CN(Cc1ccccc1)C(=O)c1[nH]c(-c2cccc(Cl)c2)nc1C(=O)O,–
9.4,–,CN(CC(=O)O)C(=O)c1nc(-c2ccccc2)[nH]c1C(=O)O,–
> 1000,–,COc1ccccc1-c1ccc(C(=O)O)o1,–
31,> 200,CN(Cc1ccccc1)C(=O)c1nc(-c2ccccc2)[nH]c1C(=O)O,–
1.46,–,O=C(O)c1nc(-c2ccccc2)[nH]c1C(=O)O,–
80,–,CNC(=O)c1nc(-c2ccccc2)[nH]c1C(=O)O,–
34,–,Cc1cccc(-c2nc(C(=O)O)c(C)[nH]2)c1,–
8,> 200,CCOC(=O)CN(Cc1ccccc1)C(=O)c1nc(-c2ccccc2)[nH]c1C(=O)O,–
0.83,13,O=C(O)c1[nH]c(-c2ccccc2)nc1C(=O)N(CCc1ccccc1)Cc1ccccc1,inhibition [4]: inactive; inhibition [5]: inactive; EC50 [6]: 10 µM; inhibition (PC-3 [7]): inactive; EC50 [8]: 30 µM
–,> 200,CN(CC(N)=O)C(=O)c1nc(-c2ccccc2)[nH]c1C(=O)O,–
